# Reference: ChEMBL document CHEMBL1201862, “PubChem BioAssay data set” (2004)
# Calls of active or inactive are those of the source.
# Columns and labels:
# [1] = NIH-3T3 fibroblast cytotoxicity, dose response, cytotoxicity control, cell-based, fluorescence, Alamar Blue, secondary assay (AID 2327); format: functional;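 also: NIH-3T3 mouse fibroblasts cultured with fluconazole at 8 µg/mL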
# BJ [2] = experiment: cells; format: functional, cell-based; details: Homo sapiens
# Mu-type opioid receptor = Mu-type opioid receptor (Homo sapiens, UniProt P35372); format: functional, cell-based;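 also: U2OS cells with beta-arrestin recruitment to OPRM1 by beta-gal complementation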
# [3] = target: Voltage-gated inwardly rectifying potassium channel KCNH2 (Homo sapiens, UniProt Q12809); details: Potency;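 also: confirmatory quantitative high-throughput screen measuring inhibition of hERG channel activity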
# [4] = cytotoxicity toward DRD oncogenic fibroblasts, dose response, cell-based, non-viral oncogenic, luminescence (AID 1934); format: functional; details: Homo sapiens
# [5] = target: 5-hydroxytryptamine receptor 2A (Mus musculus, UniProt P35363); format: functional, cell-based;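 also: CHO-K1 cells with tagged receptor and beta-arrestin; agonist potency measured as compound-induced activation of the receptor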
# BJ [6] = experiment: cytotoxicity toward BJ-TERT-LT-ST fibroblasts, dose response, cell-based, RAS-independent, luminescence (AID 1935); format: functional; details: Homo sapiens;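 also: BJ fibroblasts immortalized with TERT plus LT and ST oncogenes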
# BJ [7] = experiment: cytotoxicity toward BJ-TERT fibroblasts, dose response, cell-based, RAS-independent, luminescence (AID 1933); format: functional; details: Homo sapiens
# [8] = target: T1, Ubiquitin-conjugating enzyme E2 N (Homo sapiens, UniProt P61088); format: functional;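 also: Dose-response confirmation in a TR-FRET assay detecting UBC13-driven polyubiquitin chain formation, inhibition measured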
# T1 sequence (P61088 whole entry): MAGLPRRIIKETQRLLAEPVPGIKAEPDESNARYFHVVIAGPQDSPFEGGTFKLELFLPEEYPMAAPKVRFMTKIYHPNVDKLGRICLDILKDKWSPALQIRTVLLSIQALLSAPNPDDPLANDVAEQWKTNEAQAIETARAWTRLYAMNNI
# [9] = C. albicans growth with fluconazole, confirmation, fluorescence, retest (AID 2467); format: functional, cell-based
# A-375 = experiment: MITF: Counter assay: A375 proliferation Measured in Cell-Based System Using Plate Reader - 2084-03_Inhibitor_Dose_DryPowder_Activity. [Related pubchem assays (depositor defined):AID488944]; format: functional; details: Homo sapiens
# [10] = target: T2, Microphthalmia-associated transcription factor (Homo sapiens, UniProt O75030); experiment: TRPM1 promoter luciferase signal decrease, dose response, MITF inhibitor project, cell-based, SK-MEL-5, cherry-picked, set 3 (AID 493073); format: functional
# T2 sequence (O75030 whole entry): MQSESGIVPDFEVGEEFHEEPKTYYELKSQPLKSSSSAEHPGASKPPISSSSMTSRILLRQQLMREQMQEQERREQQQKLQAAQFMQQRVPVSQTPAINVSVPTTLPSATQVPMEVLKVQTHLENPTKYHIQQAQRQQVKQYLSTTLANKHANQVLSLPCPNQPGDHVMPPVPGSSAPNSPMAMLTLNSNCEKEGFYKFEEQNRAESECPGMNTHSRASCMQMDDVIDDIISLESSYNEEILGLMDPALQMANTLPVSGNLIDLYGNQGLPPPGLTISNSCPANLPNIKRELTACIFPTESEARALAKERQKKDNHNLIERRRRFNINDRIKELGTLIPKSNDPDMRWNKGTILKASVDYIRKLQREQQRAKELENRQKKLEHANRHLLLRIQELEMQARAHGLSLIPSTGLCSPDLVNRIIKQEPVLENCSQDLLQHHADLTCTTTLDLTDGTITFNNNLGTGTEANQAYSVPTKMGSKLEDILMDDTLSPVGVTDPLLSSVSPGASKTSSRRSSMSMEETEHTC
# [11] = target: T3, DNA repair protein RAD52 homolog (Homo sapiens, UniProt P43351); format: functional, biochemical
# T3 sequence (P43351 whole entry): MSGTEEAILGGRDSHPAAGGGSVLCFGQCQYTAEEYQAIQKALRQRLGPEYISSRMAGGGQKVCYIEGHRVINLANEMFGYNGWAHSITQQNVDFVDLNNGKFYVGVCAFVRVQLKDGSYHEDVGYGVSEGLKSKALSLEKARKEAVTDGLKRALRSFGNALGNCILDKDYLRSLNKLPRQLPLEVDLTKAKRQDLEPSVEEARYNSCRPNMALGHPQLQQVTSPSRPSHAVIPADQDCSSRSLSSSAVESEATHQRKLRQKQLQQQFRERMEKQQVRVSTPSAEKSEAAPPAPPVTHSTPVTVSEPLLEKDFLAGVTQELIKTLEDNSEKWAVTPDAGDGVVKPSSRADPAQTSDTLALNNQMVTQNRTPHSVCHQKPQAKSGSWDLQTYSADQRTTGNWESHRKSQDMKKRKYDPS
# [12] = target: Dual specificity protein phosphatase 3 (Homo sapiens, UniProt P51452); experiment: SAR VHR1 Fluorescent Assay for In Vitro dose response studies Set 3. [Related pubchem assays (depositor defined):AID1654, AID1661, AID1878]; format: functional
# Escherichia coli = experiment: microbe, parasite or virus in culture
# Trypanosoma cruzi = experiment: growth inhibition of intracellular Trypanosoma cruzi, dose response, cell-based, plate reader, dry powder, set 3 (AID 493197); format: functional
# [13] = inhibitors of Trypanosoma cruzi host-cell infection, confirmation, beta-gal luminescence, NIH3T3 host cells (AID 2630); format: functional, cell-based; details: Mus musculus
# [14] = cytotoxicity in NIH/3T3 mouse fibroblasts, dose response, cytotoxicity control, cell-based, mouse embryonic fibroblasts, dry powder, set 2 (AID 493247); format: functional; details: Fibroblast
# [15] = target: Heat shock protein HSP 90-alpha (Homo sapiens, UniProt P07900); format: functional, organism-based
# [16] = HepG2 cell cytotoxicity, dose response, cytotoxicity control for non-replicating M. tuberculosis project (AID 489018); format: functional; details: Mycobacterium tuberculosis
# Beta-galactosidase = Beta-galactosidase (Escherichia coli, UniProt Q8VNN2); experiment: beta-galactosidase enzyme inhibitors and activators, dose response, artefact control for CCR6 antagonist project, biochemical, E. coli enzyme, set 3 (AID 504712); format: functional
# cells = format: functional
# [17] = THP-1 cell cytotoxicity, dose response, cytotoxicity control for non-replicating M. tuberculosis project (AID 489025); format: functional
# [18] = inhibitors of intracellular T. cruzi replication, confirmation, NIH3T3 host cells, beta-gal luminescence (AID 2044); format: functional, cell-based;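 also: intracellular parasites grown in NIH/3T3 mouse fibroblasts as host cells; luminescent beta-galactosidase reporter signal from transgenic T. cruzi replicating inside host cells; inhibitors lower the luminescence signal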
# [19] = target: Beta-2 adrenergic receptor (Homo sapiens, UniProt P07550); experiment: beta2AR agonists driving receptor internalization, dose response, cell-based, FAP fluorogen, flow cytometry, cherry pick 1 (AID 588763); format: functional
# [20] = Vero E6 cell cytotoxicity, dose response, cytotoxicity control for non-replicating M. tuberculosis project, secondary assay (AID 492998); format: functional, VeroE6; details: Vero C1008
# [21] = cytotoxicity toward NIH3T3 fibroblasts, dose response, counter-screen, cell-based, ATP luminescence, mouse fibroblasts (AID 2010); format: functional;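 also: cells exposed to compound for about 90 hours before reading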
# Protein RecA = target: T4, Protein RecA (Mycobacterium tuberculosis, UniProt P9WHJ3); experiment: Fluorescence Cell-Free Homogeneous Dose Retest to Identify Inhibitors of RecA-Intein Splicing Activity. [Related pubchem assays (depositor defined):AID2097, AID2223, AID489010, AID492950]; format: functional
# T4 sequence (P9WHJ3 whole entry): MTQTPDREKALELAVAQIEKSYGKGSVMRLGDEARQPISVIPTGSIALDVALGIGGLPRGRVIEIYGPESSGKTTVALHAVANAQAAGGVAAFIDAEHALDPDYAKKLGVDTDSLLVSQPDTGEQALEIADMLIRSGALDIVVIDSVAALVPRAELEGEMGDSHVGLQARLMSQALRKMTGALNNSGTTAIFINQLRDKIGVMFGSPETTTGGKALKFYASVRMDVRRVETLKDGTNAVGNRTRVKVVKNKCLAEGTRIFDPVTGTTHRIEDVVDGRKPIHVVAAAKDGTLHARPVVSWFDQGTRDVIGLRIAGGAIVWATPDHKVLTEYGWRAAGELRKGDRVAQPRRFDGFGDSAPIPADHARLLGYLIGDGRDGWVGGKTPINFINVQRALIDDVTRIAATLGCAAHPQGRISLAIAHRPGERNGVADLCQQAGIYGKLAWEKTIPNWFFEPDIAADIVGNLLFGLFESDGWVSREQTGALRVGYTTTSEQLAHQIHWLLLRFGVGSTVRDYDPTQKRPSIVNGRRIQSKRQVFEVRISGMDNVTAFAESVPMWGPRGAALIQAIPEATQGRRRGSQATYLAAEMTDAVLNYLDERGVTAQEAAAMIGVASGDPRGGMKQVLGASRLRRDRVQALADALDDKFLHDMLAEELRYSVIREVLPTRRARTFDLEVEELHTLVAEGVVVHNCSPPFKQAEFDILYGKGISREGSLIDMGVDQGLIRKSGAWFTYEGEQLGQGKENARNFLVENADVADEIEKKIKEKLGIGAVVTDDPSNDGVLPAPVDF
# Apelin receptor = Apelin receptor (Homo sapiens, UniProt P35414); experiment: APJ beta-arrestin recruitment antagonism, SAR follow-up, selectivity assay for CCR6 antagonist project, cell-based, luminescent, enzyme-fragment complementation (AID 588359); format: functional
# [22] = target: T5, Replicative DNA helicase DnaB (Mycobacterium tuberculosis, UniProt P9WMR3); experiment: DnaB intein splicing inhibitors, dose response, biochemical, cell-free fluorescence (AID 449749); format: functional
# T5 sequence (P9WMR3 whole entry): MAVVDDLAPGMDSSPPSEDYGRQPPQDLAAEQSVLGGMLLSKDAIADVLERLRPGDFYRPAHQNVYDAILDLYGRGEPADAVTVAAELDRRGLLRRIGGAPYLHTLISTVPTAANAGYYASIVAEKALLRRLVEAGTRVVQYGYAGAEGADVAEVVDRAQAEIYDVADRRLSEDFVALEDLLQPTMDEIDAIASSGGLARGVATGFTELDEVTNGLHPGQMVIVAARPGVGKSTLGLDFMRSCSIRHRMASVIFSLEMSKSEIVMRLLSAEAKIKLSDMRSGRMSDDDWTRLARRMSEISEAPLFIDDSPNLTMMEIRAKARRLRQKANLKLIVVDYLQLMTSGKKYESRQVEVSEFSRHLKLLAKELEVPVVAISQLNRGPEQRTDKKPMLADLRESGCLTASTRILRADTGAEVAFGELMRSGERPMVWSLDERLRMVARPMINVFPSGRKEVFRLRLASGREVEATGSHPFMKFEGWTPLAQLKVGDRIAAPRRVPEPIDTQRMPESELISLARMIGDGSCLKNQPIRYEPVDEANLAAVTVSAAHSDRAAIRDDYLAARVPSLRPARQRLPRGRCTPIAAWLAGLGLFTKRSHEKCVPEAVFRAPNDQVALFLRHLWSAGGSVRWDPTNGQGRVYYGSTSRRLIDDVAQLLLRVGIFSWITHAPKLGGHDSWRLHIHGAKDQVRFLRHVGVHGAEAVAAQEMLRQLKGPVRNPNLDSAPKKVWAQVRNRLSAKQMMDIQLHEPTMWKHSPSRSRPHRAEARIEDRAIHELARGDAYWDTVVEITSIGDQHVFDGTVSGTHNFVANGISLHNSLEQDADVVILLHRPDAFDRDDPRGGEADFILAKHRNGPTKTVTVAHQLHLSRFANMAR
# Chain of Mu-type opioid receptor (P35372 whole entry): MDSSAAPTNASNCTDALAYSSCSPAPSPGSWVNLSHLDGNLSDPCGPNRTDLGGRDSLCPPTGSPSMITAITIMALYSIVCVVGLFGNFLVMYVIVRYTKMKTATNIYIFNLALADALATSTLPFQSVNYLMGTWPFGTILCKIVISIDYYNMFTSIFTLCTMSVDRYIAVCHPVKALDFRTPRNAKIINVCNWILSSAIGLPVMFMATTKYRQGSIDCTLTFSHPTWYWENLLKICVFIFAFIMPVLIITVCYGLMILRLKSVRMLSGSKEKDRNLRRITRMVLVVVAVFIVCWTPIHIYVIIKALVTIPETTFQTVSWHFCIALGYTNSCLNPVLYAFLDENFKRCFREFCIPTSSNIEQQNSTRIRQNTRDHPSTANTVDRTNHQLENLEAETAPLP
# Chain of Beta-galactosidase (Q8VNN2 whole entry): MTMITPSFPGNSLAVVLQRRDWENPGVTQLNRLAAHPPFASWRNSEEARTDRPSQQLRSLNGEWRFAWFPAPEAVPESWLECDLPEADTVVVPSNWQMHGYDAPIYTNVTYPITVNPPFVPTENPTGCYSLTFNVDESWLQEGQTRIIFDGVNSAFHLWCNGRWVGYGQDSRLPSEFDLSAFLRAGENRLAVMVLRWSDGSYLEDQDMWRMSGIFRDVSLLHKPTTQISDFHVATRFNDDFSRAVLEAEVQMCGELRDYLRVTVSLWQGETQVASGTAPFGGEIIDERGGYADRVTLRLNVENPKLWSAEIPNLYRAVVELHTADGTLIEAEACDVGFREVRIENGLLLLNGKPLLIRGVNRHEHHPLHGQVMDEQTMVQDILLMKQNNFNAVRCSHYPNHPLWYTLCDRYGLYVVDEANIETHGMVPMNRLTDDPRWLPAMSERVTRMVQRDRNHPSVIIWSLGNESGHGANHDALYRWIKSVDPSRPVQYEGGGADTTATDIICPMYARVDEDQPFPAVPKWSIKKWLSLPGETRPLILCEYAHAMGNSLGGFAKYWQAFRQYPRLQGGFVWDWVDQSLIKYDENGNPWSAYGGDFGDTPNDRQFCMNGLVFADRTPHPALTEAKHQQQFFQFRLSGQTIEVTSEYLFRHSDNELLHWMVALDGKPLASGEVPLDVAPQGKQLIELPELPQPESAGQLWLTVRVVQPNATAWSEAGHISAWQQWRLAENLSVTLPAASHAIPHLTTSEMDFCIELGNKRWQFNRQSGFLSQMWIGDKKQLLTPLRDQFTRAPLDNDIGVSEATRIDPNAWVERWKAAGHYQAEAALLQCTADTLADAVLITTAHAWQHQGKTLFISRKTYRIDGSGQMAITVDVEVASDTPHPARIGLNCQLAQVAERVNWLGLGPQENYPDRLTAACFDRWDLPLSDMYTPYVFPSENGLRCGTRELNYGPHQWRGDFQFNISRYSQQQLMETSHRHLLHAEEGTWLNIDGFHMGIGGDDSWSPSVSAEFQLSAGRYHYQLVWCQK
# Chain of Apelin receptor (P35414 whole entry, the tested form may be a part): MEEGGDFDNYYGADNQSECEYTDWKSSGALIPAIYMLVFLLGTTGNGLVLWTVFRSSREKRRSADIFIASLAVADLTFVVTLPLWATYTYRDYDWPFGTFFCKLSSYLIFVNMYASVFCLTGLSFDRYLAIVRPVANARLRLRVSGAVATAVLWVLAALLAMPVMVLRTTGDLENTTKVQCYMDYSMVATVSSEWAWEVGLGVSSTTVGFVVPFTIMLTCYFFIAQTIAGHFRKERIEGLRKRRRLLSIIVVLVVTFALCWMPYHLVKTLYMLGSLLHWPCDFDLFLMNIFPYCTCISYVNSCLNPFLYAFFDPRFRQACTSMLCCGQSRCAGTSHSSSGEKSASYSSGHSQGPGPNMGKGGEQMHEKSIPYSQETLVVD
# Chain of Dual specificity protein phosphatase 3 (P51452 whole entry): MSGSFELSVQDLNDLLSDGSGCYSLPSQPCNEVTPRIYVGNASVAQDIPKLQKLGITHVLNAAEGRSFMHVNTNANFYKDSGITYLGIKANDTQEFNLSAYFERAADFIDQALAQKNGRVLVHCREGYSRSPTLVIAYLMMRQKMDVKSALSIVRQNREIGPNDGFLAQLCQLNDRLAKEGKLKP
# Chain of Beta-2 adrenergic receptor (P07550 whole entry): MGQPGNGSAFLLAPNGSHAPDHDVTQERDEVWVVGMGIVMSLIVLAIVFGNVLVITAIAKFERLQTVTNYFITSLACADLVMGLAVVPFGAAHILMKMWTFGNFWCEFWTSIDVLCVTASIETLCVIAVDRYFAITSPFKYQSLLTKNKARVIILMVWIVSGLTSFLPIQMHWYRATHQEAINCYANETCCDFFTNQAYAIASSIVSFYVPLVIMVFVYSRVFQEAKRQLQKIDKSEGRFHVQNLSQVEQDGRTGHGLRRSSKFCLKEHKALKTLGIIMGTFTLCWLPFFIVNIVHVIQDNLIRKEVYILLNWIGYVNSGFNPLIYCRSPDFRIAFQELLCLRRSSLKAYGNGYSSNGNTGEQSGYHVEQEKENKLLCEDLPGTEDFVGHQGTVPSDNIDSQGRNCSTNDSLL
# Chain of 5-hydroxytryptamine receptor 2A (P35363 whole entry): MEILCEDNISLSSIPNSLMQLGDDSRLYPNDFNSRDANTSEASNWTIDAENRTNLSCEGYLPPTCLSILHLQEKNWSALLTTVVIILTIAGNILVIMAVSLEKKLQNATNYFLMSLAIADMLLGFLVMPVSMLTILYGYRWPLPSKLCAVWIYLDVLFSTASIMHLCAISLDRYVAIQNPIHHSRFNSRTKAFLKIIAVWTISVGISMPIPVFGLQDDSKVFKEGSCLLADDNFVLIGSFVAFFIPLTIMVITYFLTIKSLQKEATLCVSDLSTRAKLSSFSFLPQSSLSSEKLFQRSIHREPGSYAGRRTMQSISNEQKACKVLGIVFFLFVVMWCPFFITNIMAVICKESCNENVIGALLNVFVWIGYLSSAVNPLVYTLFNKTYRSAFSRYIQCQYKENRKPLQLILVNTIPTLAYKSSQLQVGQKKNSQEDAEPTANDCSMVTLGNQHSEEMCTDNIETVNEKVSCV
# Chain of Voltage-gated inwardly rectifying potassium channel KCNH2 (Q12809 whole entry): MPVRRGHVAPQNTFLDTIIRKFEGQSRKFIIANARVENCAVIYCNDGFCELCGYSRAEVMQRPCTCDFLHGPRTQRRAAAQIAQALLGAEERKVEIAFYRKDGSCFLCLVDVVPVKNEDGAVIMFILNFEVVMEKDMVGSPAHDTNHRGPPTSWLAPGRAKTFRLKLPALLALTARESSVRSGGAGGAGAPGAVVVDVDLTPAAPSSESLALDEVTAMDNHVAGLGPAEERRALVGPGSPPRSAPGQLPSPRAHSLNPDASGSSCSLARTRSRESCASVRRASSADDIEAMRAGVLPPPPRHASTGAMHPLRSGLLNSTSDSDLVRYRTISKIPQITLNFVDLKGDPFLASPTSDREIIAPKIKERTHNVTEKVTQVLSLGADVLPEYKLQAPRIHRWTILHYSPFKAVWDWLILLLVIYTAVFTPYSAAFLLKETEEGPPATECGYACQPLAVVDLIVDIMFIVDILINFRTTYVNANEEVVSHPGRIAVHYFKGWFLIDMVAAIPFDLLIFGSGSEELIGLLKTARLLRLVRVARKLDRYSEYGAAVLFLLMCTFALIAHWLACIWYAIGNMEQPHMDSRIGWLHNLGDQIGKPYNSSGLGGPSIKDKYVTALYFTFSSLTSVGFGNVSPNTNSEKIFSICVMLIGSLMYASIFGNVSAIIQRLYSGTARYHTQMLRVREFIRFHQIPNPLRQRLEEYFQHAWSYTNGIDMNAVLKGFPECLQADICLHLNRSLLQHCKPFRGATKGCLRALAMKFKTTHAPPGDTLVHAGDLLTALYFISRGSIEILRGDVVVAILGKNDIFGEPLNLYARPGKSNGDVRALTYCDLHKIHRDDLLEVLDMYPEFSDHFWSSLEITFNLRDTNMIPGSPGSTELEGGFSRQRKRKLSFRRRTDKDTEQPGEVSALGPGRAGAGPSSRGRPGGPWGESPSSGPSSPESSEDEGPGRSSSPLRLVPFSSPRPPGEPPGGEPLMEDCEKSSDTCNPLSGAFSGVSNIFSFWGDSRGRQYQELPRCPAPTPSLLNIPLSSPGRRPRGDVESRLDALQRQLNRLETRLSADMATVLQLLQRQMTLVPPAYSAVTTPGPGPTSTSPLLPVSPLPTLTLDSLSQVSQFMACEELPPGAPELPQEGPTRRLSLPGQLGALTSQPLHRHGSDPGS
smiles,measurement,setting,value
NC[C@@H]1O[C@H](C23CC4CC(CC(C4)C2)C3)Cc2c1ccc(O)c2O,EC50,[1],> 150 µM (inactive)
same,EC50,BJ [2],> 150 µM (not active)
same,EC50,Mu-type opioid receptor,92.4 µM (inactive)
same,AC50,[3],22.4 µM (inconclusive)
same,EC50,[4],13.1 µM (active)
same,EC50,[5],1.2 µM (active)
same,EC50,BJ [6],13.7 µM (inconclusive)
same,EC50,BJ [7],10.3 µM (inconclusive)
same,IC50,[8],> 20 µM (inactive)
same,EC50,[9],4.44 µM (active)
CN1CCC(N(C)C(=O)/C=C/c2cn(-c3ccccc3)nc2-c2cccs2)CC1,AC50,A-375,30.5 µM (active)
same,AC50,[10],9.82 µM (active)
same,AC50,[11],12.2 µM (active)
same,IC50,[8],> 20 µM (inactive)
CCOc1cccc2sc(NC(=O)c3ccc(OC)cc3)nc12,IC50,[12],51.7 µM (active)
COC(=O)c1cnc(NNS(=O)(=O)c2ccc(C(F)(F)F)cc2)nc1C(F)(F)F,AC50,Escherichia coli,> 380 µM (inactive)
CN(Cc1ccccc1)C(=O)C1CCCN(Cc2ccccc2C(F)(F)F)C1 (stereo not given),AC50,Trypanosoma cruzi,15.9 µM (active)
same,EC50,[13],4.64 µM (active)
same,AC50,[14],63.3 µM (active)
O=[N+]([O-])c1ccc(S(=O)(=O)c2cccc(C(F)(F)F)c2)nc1,AC50,[15],1.84 µM (active)
same,CC50,[16],> 20 µM (active)
same,IC50,Beta-galactosidase,> 66.6 µM (inactive)
same,IC50,cells,3.47 µM (active)
same,EC50,BJ [2],12.1 µM (inconclusive)
same,CC50,[17],28.8 µM (active)
same,EC50,[18],0.913 µM (active)
same,EC50,[4],6.52 µM (active)
same,EC50,[19],7.62 µM (inactive)
same,EC50,BJ [6],10.8 µM (inconclusive)
same,CC50,[20],14.8 µM (active)
same,EC50,[21],2.06 µM (active)
same,EC50,Protein RecA,14.2 µM (active)
same,EC50,BJ [7],2.55 µM (inconclusive)
same,IC50,Apelin receptor,18.8 µM (active)
same,AC50,[22],> 380 µM (inactive)
